Data published in ChEMBL document CHEMBL1156829 (Proc Natl Acad Sci U S A, 2008).

Assays:
[1] = NOVARTIS: Cytotoxicity against human hepatocellular carcinoma cell line (Huh7); assay type: toxicity, cell-based, Huh-7; conditions: Huh7 cells (hepatocellular carcinoma cell line)
Plasmodium falciparum [2] = test: NOVARTIS: Inhibition of Plasmodium falciparum 3D7 (drug-susceptible) proliferation in erythrocyte-based infection assay; assay type: functional, organism-based; conditions: Plasmodium falciparum, 3D7
Plasmodium falciparum [3] = test: NOVARTIS: Inhibition of Plasmodium falciparum W2 (drug-resistant) proliferation in erythrocyte-based infection assay; assay type: functional, organism-based; conditions: Plasmodium falciparum, W2; read-out: EC50

Compound | CC50 [1] [nM] | EC50 (Plasmodium falciparum [2]) [nM] | EC50 (Plasmodium falciparum [3]) [nM]
COc1cc2nc(NCC3CCCO3)n3nc(-c4ccccc4)nc3c2cc1OC (configuration not stated) | > 100000 | 293 | 662
Cc1ccc(N(C(=O)c2snc(C(=O)NC3CCCCC3)c2N)C(C(=O)NCCc2ccccc2)c2ccc(O)cc2)c(C)c1 (configuration not stated) | > 100000 | 1480 | 672
CCOC(=O)c1c(NC(=O)C(C)Sc2nnc(CNC(=O)c3ccco3)n2-c2cccc(C(F)(F)F)c2)sc2c1CCC2 (configuration not stated) | > 100000 | > 12500 | 649
CN(CCCNc1ccnc2cc(Cl)ccc12)C(=O)C1CC1 | > 7250 | 164 | 46.7
N=c1n(Cc2ccccc2)c2ccccc2n1CC(O)c1ccc(Cl)c(Cl)c1 (configuration not stated) | 6590 | 214 | 43.6
COc1cc(C(=O)NCCc2ccccn2)ccc1OC1CCN(CC(c2ccccc2)c2ccccc2)CC1 | 13000 | 440 | 86.4
COc1ccc(C=NNc2cc(C)nc3ccc(OC)cc23)c(OC)c1 | 6690 | 33.1 | 43.5
Cn1nc(C(F)(F)F)c(-c2ccc(F)cc2)c1NC(=O)Nc1ccccc1 | 54300 | 392 | 353
CN(C)CCNC(=O)c1cc2c(-c3ccc(Cl)cc3)nn(C)c2s1 | 64600 | 339 | 422
Cc1c(C=O)c2ccccc2n1CC(=O)Nc1cccc(I)c1 | > 61200 | 365 | 405
CN1CCN(c2nc(NN=Cc3cc(I)ccc3O)nc(Nc3ccc([N+](=O)[O-])cc3)n2)CC1 | 47700 | 383 | 316
Fc1ccc(Nc2nc(NCc3ccccc3)c3ccccc3n2)cc1 | 8870 | 75.5 | 58.6
CCCn1cc(SCC(=O)NCc2ccco2)c2ccccc21 | > 100000 | 1020 | 673
O=C(NCCCCNC(=O)Nc1cccc(C2=NCCN2)c1)Nc1cccc(C2=NCCN2)c1 | > 10000 | 203 | 67.2
CCOC(=O)C1=C(C)NC2=C(C(=O)C(C(=O)OCC)C(c3cccc(OC)c3)C2)C1c1ccc(Br)cc1 (configuration not stated) | > 100000 | 2170 | 671
Oc1ccc(-c2cncnc2)cc1CNC1CCN(Cc2ccccc2)CC1 | > 100000 | 698 | 671
CC(=O)c1cc(CN2CCC(C(=O)Nc3ccc(-n4nc(C)cc4C)cc3)CC2)cs1 | > 100000 | 969 | 665
CN1CCc2c(sc3nc(SCc4ccccc4)n(-c4ccccc4)c(=O)c23)C1 | > 100000 | 1770 | 670
CN1CCN(c2nc(NN=Cc3cccc(Cl)c3)nc(Nc3ccc([N+](=O)[O-])cc3)n2)CC1 | 43400 | 500 | 290
O=C(NCc1ccc2c(c1)OCO2)C1CNCC1c1ccc(C(F)(F)F)cc1 (configuration not stated) | 54300 | 325 | 362
Brc1ccc(/C=C/c2cc[n+](Cc3ccccc3)cc2)cc1 | > 10000 | 112 | 66.6
CCc1ccc2[nH]c(=O)c(CN(CCCN(CC)CC)C(=S)NCCCN(C)C)cc2c1 | > 100000 | 2040 | 664
Cc1ccc(N=Nc2nc3ccccc3n2C)c(C)c1 | 3600 | 87.5 | 24.1

Compound | CC50 [1] [nM] | EC50 (Plasmodium falciparum [2]) [nM] | EC50 (Plasmodium falciparum [3]) [nM]
CC1=CC(=C(C#N)c2nc3ccccc3s2)C=C(C)N1CC1CCCO1 (configuration not stated) | > 100000 | 411 | 670
O=c1c2c([nH]c3cc(Cl)ccc13)CCCC2 | > 100000 | 333 | 649
CN(CCCNc1ccnc2cc(Cl)ccc12)C(=O)C(Cl)Cl | > 14000 | 28.6 | 91.4
C[N+](C)(CC#Cc1ccccc1)CC#Cc1ccccc1 | > 100000 | 1930 | 679
CCC(C(=O)N1CCN(Cc2ccccc2)CC1)c1ccccc1 (configuration not stated) | > 100000 | 6910 | 677
CCCn1nc(Oc2nc(NCC)cc(OC)n2)ccc1=O | > 100000 | 384 | 677
Cc1ccc2c(c1)NC(c1ccc(F)cc1)C1=C(CC(c3ccccc3)CC1=O)N2 (configuration not stated) | > 100000 | 833 | 635
CC1=C(C(=O)OC2CCCCC2)C(c2ccc(F)cc2)C2=C(CC(c3ccccc3)CC2=O)N1 (configuration not stated) | > 100000 | 3690 | 653
COc1ccc(C=CC(=O)NC(=O)c2ccccc2O)cc1 | > 73500 | 132 | 479
COC(=O)C1=C(C)NC2=C(C(=O)CC(C)(C)C2)C1c1ccc(C)o1 (configuration not stated) | > 100000 | 1580 | 638
OC1(c2cccc3ccccc23)CCN(Cc2ccccc2)C1 (configuration not stated) | 23100 | 457 | 148
Cc1ccn2c(NC(C)(C)CC(C)(C)C)c(-c3ccccc3OC(=O)/C=C/c3ccc([N+](=O)[O-])cc3)nc2c1 | > 10000 | > 1390 | 63.7
Cc1c2c(cc3c1ccc1ccccc13)C[N+]1(CCCCC1)C2 | > 100000 | 1290 | 657
N#CC(=Cc1cn(Cc2ccccc2Cl)c2ccccc12)c1nn(CCO)c(N)c1C#N | 44800 | 273 | 294
COCCNC(=S)N(Cc1ccc(F)cc1)Cc1cc2ccc(C)c(C)c2[nH]c1=O | > 10000 | 412 | 64.2
CC1=C(C(=O)OC(C)C)C(c2ccc([N+](=O)[O-])cc2)C2=C(CC(C)(C)CC2=O)N1 (configuration not stated) | 40000 | 1560 | 255
CCOc1ccc(CCNC(=O)Nc2ccc(F)cc2)cc1OCC | > 74700 | 751 | 492
CC(C)CN1CCC(O)(c2ccc3oc(C(=O)Nc4ccc5c(c4)OCO5)cc3c2)CC1 | 55200 | 1080 | 363
O=C(Nc1ccccc1[N+](=O)[O-])C1CC1(c1ccccc1)c1ccccc1 (configuration not stated) | > 100000 | > 12500 | 647
COc1ccc(C2CC(=O)C3=C(C2)NC(C)=C(C(=O)OC2CCCC2)C3c2ccc(OC)cc2)cc1 (configuration not stated) | > 100000 | 3260 | 649
COc1ccc(C2Nc3ccc4ccccc4c3C3=C2C(=O)CC(C)(C)C3)cc1Br (configuration not stated) | > 100000 | 3190 | 649
Cc1ccc[n+](C(C)C(=O)c2ccc(-c3ccccc3)cc2)c1 (configuration not stated) | > 100000 | 1610 | 649
COc1ccc(C(=O)ON=C(N)Cc2ccc(Cl)cc2Cl)cc1[N+](=O)[O-] | > 100000 | 4980 | 675

Compound | CC50 [1] [nM] | EC50 (Plasmodium falciparum [2]) [nM] | EC50 (Plasmodium falciparum [3]) [nM]
CC(NC(=O)C(=O)N1CCCCC1)C(c1cccs1)N1CCOCC1 (configuration not stated) | > 100000 | > 1680 | 675
CCOC(=O)c1cnc2c(C)cc(C)cc2c1Nc1ccc(C(C)=O)cc1 | > 100000 | 749 | 675
O=C(Nc1ccc(-c2nc3ccc(-c4nc5ccc(NC(=O)c6cccc7ccccc67)cc5[nH]4)cc3[nH]2)cc1)c1cccc2ccccc12 | > 100000 | 742 | 641
Cc1cc(Nc2ccc(Cl)c(Cl)c2)n2ncnc2n1 | > 100000 | 1680 | 674
COc1ccc(Cl)cc1NC(=S)NNC(=O)c1cccnc1 | > 100000 | 536 | 664
O=C(Nc1ccc(-n2cnnn2)cc1)C1CCN(Cc2cc3ccccc3o2)CC1 | > 61900 | 198 | 416
O=c1c2c([nH]c3ccccc13)CCCCCCCCCC2 | > 100000 | 277 | 671
Clc1ccc(-c2c[n+](Cc3ccc(Cl)c(Cl)c3)c3n2CCC3)cc1 | > 93600 | 446 | 623
CC(C)N1CC=C(c2c[nH]c3ccccc23)CC1 | > 100000 | 206 | 637
OC1CCCCC1C1(NC(=S)Nc2ccccc2)CCCCC1 (configuration not stated) | 22800 | 211 | 153
CCN1CCCC1CNc1ncnc2c1[nH]c1ccc(C)cc12 (configuration not stated) | 21000 | 269 | 138
Cn1ccnc1C1CCCCN1C(=O)c1cc(COc2ccc(F)cc2Cl)on1 (configuration not stated) | > 100000 | 1830 | 673
CCCN(CCC)C(=O)Cn1ccc(=N)c2ccccc21 | > 100000 | 1200 | 671
CC1=C(C(=O)OCC(C)C)C(c2ccc(OCc3ccccc3)cc2)C2=C(CC(c3ccccc3)CC2=O)N1 (configuration not stated) | > 100000 | 961 | 659
Cc1ccc(C(=O)Oc2ccccc2-c2nc3ccccn3c2NC(C)(C)CC(C)(C)C)cc1[N+](=O)[O-] | > 10000 | 1240 | 67.5
O=C(O)c1ccc2c(c1)N=C(c1ccccc1)N(Cc1cccnc1)C2 | > 10000 | 476 | 65.7
CC(C)(C)CC(C)(C)Nc1c(-c2ccccc2OC(=O)c2ccc(C(F)(F)F)cc2)nc2ccccn12 | > 10000 | 670 | 64
Cc1c2c(n3c(nc4ccccc43)c1C#N)N(CCN(C)C)CC2 | > 100000 | 419 | 638
CCCCCOC(=O)C1=C(C)NC2=C(C(=O)CCC2)C1c1ccc(OC)c(Br)c1 (configuration not stated) | > 100000 | 615 | 650
COc1cc2c(-c3cc(Br)ccc3O)nc3c(c(-c4ccccc4)nn3-c3ccccc3)c2cc1OC | > 100000 | 1150 | 655
CN(C)c1ccc(-c2n(C)c3ccccc3[n+]2C)cc1 | > 100000 | 1120 | 636
N#Cc1ccc(N2CCN(C(=O)c3ccc(F)cc3Cl)CC2)cc1 | > 10000 | 155 | 67.5
C[n+]1cccc(C=C2c3ccccc3-c3ncccc32)c1 | > 100000 | 173 | 678
